Patent publication US5631246A, “Use of PAF” (The Canadian Red Cross Society, priority 1993, dated 1997)

Legend:
endothelial cells (ECs) = experiment: vWf release from ECs exposed directly to PAF or thrombin; details: for Increase in vWf release (%), BTP-dioxolane absent: 4 hours
Experimental: Synthetic PAF (1-O-alkyl-2-acetyl-sn-glyceryl-3-phosphorylcholine; Sigma #P-9525) prepared from bovine heart lecithin (Demopoulos et al. (1979) J. Biol. Chem. 254: 9355-358) was 99% pure by TLC analysis, HPLC analysis indicated this product consisted of 70% C16 and 13% C18 forms of PAF (Mita et al., (1989) Anal. Biochem. 180:131-135). After removal of chloroform, PAF was resuspended in DMEM/F12 culture medium containing 1% Nutridoma-HU (final protein concentration of 40 μM stock solution). After sonication for 3×1 minute periods, the PAF solution was diluted and used immediately.
Media with or without thrombin (@5 units/mL) served as positive and negative controls respectively. ECs were incubated for 1, 10, 20 or 30 minutes and 1, 2, 4, 6 and 24 hours in the PAF and thrombin time course studies. The EC conditioned media were recovered, centrifuged to remove any cell debris, and then frozen at -80° C. for a maximum period of 4 weeks prior to analyses. […] Where appropriate ECs were preincubated with BTP-dioxolane which was not cytotoxic to the cells as determined by the dye exclusion test.
Endothelial cells (ECs) were harvested from human umbilical cord vein as described by Jaffe et al. ((1973) Culture of Human Endothelial Cells Derived from Umbilical Veins: Identification by Morphologic and Immunologic Criteria, J. Clin. Invest. 52:2745-2756) and modified by Hashemi et al. (1990, supra). Endothelial cells were subcultured in 0.2% (w/v) gelatin-coated, 12-well Linbro™ polystyrene, tissue culture plates (Flow Laboratories, Mississauga, Ontario), then plated at a density of 1-2×10^4 /well and grown to confluence.
The standard consisted of a pool of plasma from 20 normal individuals previously determined to contain 1 unit of vWf per mL by the procedure of Zimmerman et al. (1977, J. Clin. Invest. 59:984-989). […] For some experiments, the maximum vWf that could be released was determined. Following incubation, the EC conditioned media were recovered and fresh media containing 0.05% (v/v) Tween 20 and 10 μM each of the protease inhibitors D-phenylalanyl-phenylalanyl-arginyl-chloromethyl ketone, D-phenylalanyl-propyl-arginyl-chloromethyl ketone and 1,5-Dansyl-glutamyl-glycyl-arginyl-chloromethyl ketone were added to the EC monolayers of each corresponding well. The cells were freeze-thawed three times and, to assure complete breakdown of the cell membranes as well as the Weibel-Palade bodies, disrupted in a glass homogenizer using a motor-driven teflon pestle. After centrifugation, total vWf concentration was determined in the supernatants.
In order to examine the responsiveness of ECs to direct PAF exposure, we incubated the monolayers of ECs with 0-300 pico molar (pM) PAF for a period of 4 hours at 37° C. and determined the amount of vWf released into the EC media. […] To determine the time course of PAF effects on vWf release, 300 pM PAF was incubated with monolayers of ECs for 1, 10, 20 and 30 minutes as well as for 1, 2, 4, 6 and 24 hours. […] As a control, the vWf release from thrombin stimulated ECs was also determined (FIG. 5).

[1] = Stability of PAF in stored monocyte conditioned media; assay type: physicochemical; details: -80° C., various periods of time; within experimental error
Excerpt: In addition, PAF was extracted from the monocyte supernatants and assayed using the following highly specific and sensitive radioimmunoassay. As the most predominant bioactive forms of PAF secreted by monocytes are the C16 and C18 alkyl moieties (Sugiura and Waku, (1987) Platelet-Activating Factor and Related Lipid Mediators, F. Snyder Ed. Plenum Press, N.Y. 55-85; Prescott et al. (1990) Proc. Natl. Acad. Sci. U.S.A. 81:3534-3538), PAF was quantitated using the highly specific and sensitive ^125 I-RIA kit manufactured by NEN Research Products (Du Pont Canada, Mississauga, Ontario, Canada) following extraction of the monocyte supernatants with 5 mL each of methanol and chloroform and 3.5 mL of water per mL of sample. The recovered chloroform layers, dried under nitrogen, were reconstituted in the PAF assay kit buffer prior to analysis. […] Recoveries of PAF (90±1%, n=>130) were assessed by adding trace amounts of ^3 H-PAF to the sample prior to extraction and determining the % recoveries using a liquid scintillation counter (Model-7000, Beckman Instruments Canada). Iodinated samples were counted on a Beckman Gamma 5500 counter (Beckman Instruments, Fullerton, Calif.). […]

ECs = details: stimulation with PAF; D'Humieres et al. (1986); cited from earlier work

Substance: 1-O-alkyl-2-acetyl-sn-glyceryl-3-phosphorylcholine [PAF]
- vWf release from ECs (maximal) (endothelial cells (ECs); 300 pM PAF, 30 minutes, P<0.05, n=5): 151%
- vWf release as share of the maximal vWf recoverable (endothelial cells (ECs); 300 pM PAF, 30 minutes, […]): ~ 4%
- time course of vWf release from ECs (endothelial cells (ECs); 300 pM PAF, FIG. 5): released vWf at all time points up to 24 hours
- PAF concentration range of greatest vWf release response (endothelial cells (ECs); FIG. 4, 4 hours at 37° C., n=5): 100 to 300 pM
- Increase in vWf release (%), BTP-dioxolane absent (endothelial cells (ECs); PAF 100 pM, n=5): 190.8 ± 46.6%
- Increase in vWf release (%), BTP-dioxolane absent (endothelial cells (ECs); PAF 300 pM, n=5): 204.2 ± 48.7%
- PAF values in monocyte conditioned media after storage [1]: gave the same values
- PGI2 release from ECs (ECs): release PGI2 in response to stimulation
